From ChEMBL document CHEMBL4818987, “Recent advances of podophyllotoxin/epipodophyllotoxin hybrids in anticancer activity, mode of action, and structure-activity relationship: An update (2010-2020)” (Eur J Med Chem, 2020)

Legend:
[1] = Selectivity ratio of IC50 for African green monkey Vero cells to IC50 for human HeLa cells; format: toxicity; conditions: read-out: Ratio IC50
[2] = Selectivity ratio of IC50 for human L02 cells to IC50 for human A549 cells; format: toxicity; conditions: read-out: Ratio IC50
L02 [3] = test: Cytotoxicity against human L02 cells; format: cell-based
[4] = Selectivity ratio of IC50 for African green monkey Vero cells to IC50 for human A549 cells; format: toxicity; conditions: read-out: Ratio IC50
[5] = Selectivity ratio of IC50 for human L02 cells to IC50 for human HeLa cells; format: toxicity; conditions: read-out: Ratio IC50
Calu-1 = test: Antiproliferative activity against human Calu-1 cells incubated for 24 hrs by MTT assay; format: functional, cell-based; conditions: Calu-1, 24 h
[6] = Selectivity ratio of IC50 for human L02 cells to IC50 for human Calu-1 cells; format: toxicity; conditions: L02 cells / Calu-1 cells, read-out: Ratio IC50
Vero = test: Cytotoxicity against African green monkey Vero cells; format: cell-based; conditions: Chlorocebus sabaeus
A549 [7] = test: Antiproliferative activity against human A549 cells incubated for 24 hrs by MTT assay; format: functional, cell-based; conditions: A549, 24 h
[8] = Selectivity ratio of IC50 for African green monkey Vero cells to IC50 for human Calu-1 cells; format: toxicity; conditions: Vero cells / Calu-1 cells, read-out: Ratio IC50
HeLa = test: Antiproliferative activity against human HeLa cells incubated for 24 hrs by MTT assay; format: functional, cell-based
SMMC-7721 [9] = test: Antiproliferative activity against human SMMC-7721 cells incubated for 48 hrs by MTT assay; format: functional, cell-based; conditions: SMMC-7721, 48 h
HL-60 [10] = test: Potency index, ratio of cisplatin IC50 to test compound IC50 for antiproliferative activity against human HL-60 cells; format: functional
SW480 [11] = test: Antiproliferative activity against human SW480 cells incubated for 48 hrs by MTT assay; format: functional, cell-based; conditions: SW480, 48 h
SMMC-7721 [12] = test: Potency index, ratio of cisplatin IC50 to test compound IC50 for antiproliferative activity against human SMMC7721 cells; format: functional
A549 [13] = test: Potency index, ratio of cisplatin IC50 to test compound IC50 for antiproliferative activity against human A549 cells; format: functional
HL-60 [14] = test: Antiproliferative activity against human HL-60 cells incubated for 48 hrs by MTT assay; format: functional, cell-based; conditions: HL-60, 48 h
SW480 [15] = test: Potency index, ratio of cisplatin IC50 to test compound IC50 for antiproliferative activity against human SW480 cells; format: functional
MCF7 [16] = test: Potency index, ratio of cisplatin IC50 to test compound IC50 for antiproliferative activity against human MCF7 cells; format: functional
MCF7 [17] = test: Antiproliferative activity against human MCF7 cells incubated for 48 hrs by MTT assay; format: functional, cell-based; conditions: MCF7, 48 h
A549 [18] = test: Antiproliferative activity against human A549 cells incubated for 48 hrs by MTT assay; format: functional, cell-based; conditions: A549, 48 h
SK-OV-3 = test: Antiproliferative activity against human SKOV3 cells incubated for 48 hrs by MTT assay; format: functional, cell-based; conditions: SK-OV-3, 48 h
K562/A02 = test: Antiproliferative activity against human K562/A02 cells incubated for 48 hrs by MTT assay; format: functional, cell-based; conditions: K562/A02, 48 h
MGC-803 = test: Antiproliferative activity against human MGC-803 cells incubated for 48 hrs by MTT assay; format: functional, cell-based; conditions: MGC-803, 48 h
BGC-823 = test: Antiproliferative activity against human BGC-823 cells incubated for 48 hrs by MTT assay; format: functional, cell-based; conditions: BGC-823, 48 h
HepG2 = test: Antiproliferative activity against human HepG2 cells incubated for 48 hrs by MTT assay; format: functional, cell-based; conditions: HepG2, 48 h
[19] = Cytotoxicity against PBMC (unknown origin) incubated for 24 hrs by CCK8 assay
MCF7 [20] = test: Antiproliferative activity against human MCF7 cells incubated for 24 hrs by MTT assay; format: functional, cell-based; conditions: MCF7, 24 h
L02 [21] = test: Cytotoxicity against human HL7702 cells incubated for 48 hrs by MTT assay; format: cell-based; conditions: L02, 48 h
L02 [22] = test: Cytotoxicity against human L02 cells incubated for 24 hrs by CCK8 assay; format: functional, cell-based; conditions: L02, 24 h
[23] = Cytotoxicity against human KBV cells by MTT assay; format: functional, cell-based

## COc1cc([C@@H]2c3cc4c(cc3[C@H](OC(=O)CCCCC3CCSC(c5ccc(C(F)(F)F)cc5)S3)[C@H]3COC(=O)[C@H]23)OCO4)cc(OC)c1OC (stereo not given in full)
[1]
  selectivity ratio: ≥ 9.7
[2]
  selectivity ratio: ≥ 9.7
L02 [3]
  IC50: > 93.8 µM
[4]
  selectivity ratio: ≥ 9.7
[5]
  selectivity ratio: ≥ 9.7
Calu-1
  IC50: 2.68 µM
[6]
  selectivity ratio: ≥ 9.7
Vero
  IC50: > 93.8 µM
A549 [7]
  IC50: 2.68 µM
[8]
  selectivity ratio: ≥ 9.7
HeLa
  IC50: 2.68 µM

## COc1cc([C@@H]2c3cc4c(cc3[C@@H](n3cc(COC[C@H]5O[C@@H](OCc6cn([C@@H]7c8cc9c(cc8[C@@H](c8cc(OC)c(O)c(OC)c8)[C@H]8C(=O)OC[C@@H]87)OCO9)nn6)[C@H](OC(C)=O)[C@@H](OC(C)=O)[C@@H]5OC(C)=O)nn3)[C@H]3COC(=O)[C@H]23)OCO4)cc(OC)c1O
SMMC-7721 [9]
  IC50: 14 µM
HL-60 [10]
  Ratio IC50: 2.8
SW480 [11]
  IC50: 14 µM
SMMC-7721 [12]
  Ratio IC50: 2.8
A549 [13]
  Ratio IC50: 2.8
HL-60 [14]
  IC50: 14 µM
SW480 [15]
  Ratio IC50: 2.8
MCF7 [16]
  Ratio IC50: 2.8
MCF7 [17]
  IC50: 14 µM
A549 [18]
  IC50: 14 µM

## COc1cc(C(=O)/C=C/c2ccc(F)cc2)ccc1OCc1cn([C@@H]2c3cc4c(cc3[C@@H](c3cc(OC)c(OC)c(OC)c3)[C@H]3C(=O)OC[C@@H]32)OCO4)nn1
SK-OV-3
  IC50: 0.53 µM
K562/A02
  IC50: 0.53 µM
MGC-803
  IC50: 0.53 µM
BGC-823
  IC50: 0.53 µM

## CCCC(=O)O[C@@H]1[C@@H](OC(=O)CCC)[C@H](OCc2cn([C@@H]3c4cc5c(cc4[C@@H](c4cc(OC)c(O)c(OC)c4)[C@H]4C(=O)OC[C@@H]43)OCO5)nn2)O[C@H](COCc2cn([C@@H]3c4cc5c(cc4[C@@H](c4cc(OC)c(O)c(OC)c4)[C@H]4C(=O)OC[C@@H]43)OCO5)nn2)[C@H]1OC(=O)CCC
SMMC-7721 [9]
  IC50: 14 µM
HL-60 [10]
  Ratio IC50: 2.8
SW480 [11]
  IC50: 14 µM
SMMC-7721 [12]
  Ratio IC50: 2.8
A549 [13]
  Ratio IC50: 2.8
HL-60 [14]
  IC50: 14 µM
SW480 [15]
  Ratio IC50: 2.8
MCF7 [16]
  Ratio IC50: 2.8
MCF7 [17]
  IC50: 14 µM
A549 [18]
  IC50: 14 µM

## COc1cc([C@@H]2c3cc4c(cc3[C@H](OC(=O)CCCCC3CCSC(c5ccc(C)cc5)S3)[C@H]3COC(=O)[C@H]23)OCO4)cc(OC)c1OC (stereo not given in full)
[1]
  selectivity ratio: ≥ 9.7
[2]
  selectivity ratio: ≥ 9.7
L02 [3]
  IC50: > 93.8 µM
[4]
  selectivity ratio: ≥ 9.7
[5]
  selectivity ratio: ≥ 9.7
Calu-1
  IC50: 2.68 µM
[6]
  selectivity ratio: ≥ 9.7
Vero
  IC50: > 93.8 µM
A549 [7]
  IC50: 2.68 µM
[8]
  selectivity ratio: ≥ 9.7
HeLa
  IC50: 2.68 µM

## COc1cc([C@@H]2c3cc4c(cc3[C@H](OC(=O)CCCCC3CCSC(c5cccc(C(F)(F)F)c5)S3)[C@H]3COC(=O)[C@H]23)OCO4)cc(OC)c1OC (stereo not given in full)
[1]
  selectivity ratio: ≥ 9.7
[2]
  selectivity ratio: ≥ 9.7
L02 [3]
  IC50: > 93.8 µM
[4]
  selectivity ratio: ≥ 9.7
[5]
  selectivity ratio: ≥ 9.7
Calu-1
  IC50: 2.68 µM
[6]
  selectivity ratio: ≥ 9.7
Vero
  IC50: > 93.8 µM
A549 [7]
  IC50: 2.68 µM
[8]
  selectivity ratio: ≥ 9.7
HeLa
  IC50: 2.68 µM

## COc1cc([C@@H]2c3cc4c(cc3[C@H](O)[C@H]3COC(=O)[C@H]23)OCO4)cc(OC)c1OC [PODOFILOX]
HepG2
  IC50: 4.31 µM
L02 [3]
  IC50: 3.16 µM
[19]
  IC50: 5.02 µM
Calu-1
  IC50: 2.68 µM
Vero
  IC50: 1.04 µM
A549 [7]
  IC50: 2.13 µM
MCF7 [20]
  IC50: 2.13 µM
A549 [18]
  IC50: 4.31 µM
BGC-823
  IC50: 4.31 µM
L02 [21]
  IC50: 4.31 µM
HeLa
  IC50: 2.13 µM
L02 [22]
  IC50: 2.97 µM

## CC[C@]1(O)C[C@H]2CN(CCc3c([nH]c4ccccc34)[C@@](C(=O)OC)(c3cc4c(cc3OC)N(C=O)[C@H]3[C@@](O)(C(=O)OC)[C@H](OC(C)=O)[C@]5(CC)C=CCN6CC[C@]43[C@@H]65)C2)C1 [VINCRISTINE]
[23]
  IC50: 50.3 µM
